“And” between values parts separate entries of the source, which are not always exact repeats. Equal entries are not always repeated. ± gives the expanded uncertainty stated by the source.
Details: for mass density: 298 K, 101.33 kPa, Liquid, masses and of the volumes of pellets.; for Normal melting temperature / vapor or sublimation pressure: Crystal; for Normal melting temperature: DTA; for vapor or sublimation pressure: Knudsen effusion

## O=C1c2ccccc2C(=O)N1CCBr [N-(2-bromoethyl)phthalimide]
  mass density: 1323 ± 26 kg/m3
  Normal melting temperature: 81.5 ± 0.5 °C

## O=C1c2ccccc2C(=O)N1CCCl [N-(2-chloroethyl)phthalimide]
  mass density: 1218 ± 24 kg/m3
  Normal melting temperature: 82.8 ± 0.5 °C

## O=C1c2ccccc2C(=O)N1CCCBr [N-(3-bromopropyl)phthalimide]
  mass density: 1051 ± 21 kg/m3
  Normal melting temperature: 72.8 ± 0.5 °C

## O=C1c2ccccc2C(=O)N1CCl [N-(chloromethyl)phthalimide]
  mass density: 1081 ± 22 kg/m3
  Normal melting temperature: 133.5 ± 0.5 °C
323.27 K
  vapor or sublimation pressure: 0.000111 ± 2e-05 kPa and 0.000106 ± 2e-05 kPa
325.24 K
  vapor or sublimation pressure: 0.000138 ± 2.1e-05 kPa and 0.000137 ± 2.1e-05 kPa and 0.000132 ± 2.1e-05 kPa
327.12 K
  vapor or sublimation pressure: 0.000171 ± 2.1e-05 kPa and 0.000168 ± 2.1e-05 kPa and 0.000169 ± 2.1e-05 kPa
329.26 K
  vapor or sublimation pressure: 0.000218 ± 2.1e-05 kPa and 0.000207 ± 2.1e-05 kPa and 0.00022 ± 2.1e-05 kPa
331.23 K
  vapor or sublimation pressure: 0.000282 ± 2.2e-05 kPa and 0.00027 ± 2.2e-05 kPa and 0.000262 ± 2.2e-05 kPa
333.11 K
  vapor or sublimation pressure: 0.00033 ± 2.3e-05 kPa and 0.000328 ± 2.3e-05 kPa and 0.000329 ± 2.3e-05 kPa
335.12 K
  vapor or sublimation pressure: 0.00042 ± 2.5e-05 kPa and 0.000413 ± 2.5e-05 kPa and 0.000402 ± 2.5e-05 kPa
337.26 K
  vapor or sublimation pressure: 0.000534 ± 2.8e-05 kPa and 0.000519 ± 2.7e-05 kPa and 0.000507 ± 2.7e-05 kPa
339.12 K
  vapor or sublimation pressure: 0.000648 ± 3e-05 kPa and 0.000644 ± 3e-05 kPa and 0.000618 ± 3e-05 kPa
341.22 K
  vapor or sublimation pressure: 0.000835 ± 3.6e-05 kPa and 0.000801 ± 3.5e-05 kPa and 0.00077 ± 3.4e-05 kPa
343.25 K
  vapor or sublimation pressure: 0.001007 ± 4.1e-05 kPa and 0.000989 ± 4e-05 kPa and 0.000946 ± 3.9e-05 kPa
